Where “and” joins values, the source holds several entries; their conditions need not be identical. Equal entries are not always repeated. Inconclusive results and toxic doses are left out. Rule for the calls: active = survival T/C of 150% or more; inactive = T/C below 125% in these data.
Test system: P388 leukemia ip, CD2F1 mice, survival T/C
Test: NCI In Vivo Anticancer Drug Screen. Data for tumor model P388 Leukemia (intraperitoneal) in CD2F1 (CDF1) mice
Settings: endpoint: median survival time, higher = longer survival
Procedure, shortened: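 Mice carrying the transplanted tumor received test compound or vehicle. Survival was recorded in each group, and the value is the treated-group measurement divided by that of the vehicle-treated control group.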

[1] = dose: 50.0 mg/kg/injection, schedule: Q01DX009 (ip), vehicle: saline with Tween-80
[2] = dose: 100.0 mg/kg/injection, schedule: Q01DX009 (ip), vehicle: saline with Tween-80
[3] = dose: 200.0 mg/kg/injection, schedule: Q01DX009 (ip), vehicle: saline with Tween-80
[4] = dose: 50.0 mg/kg/injection, schedule: Q01DX005 (ip), vehicle: Klucel (hydroxypropylcellulose) (HPC)
[5] = dose: 100.0 mg/kg/injection, schedule: Q01DX005 (ip), vehicle: Klucel (hydroxypropylcellulose) (HPC)
[6] = dose: 200.0 mg/kg/injection, schedule: Q01DX005 (ip), vehicle: Klucel (hydroxypropylcellulose) (HPC)
[7] = dose: 60.0 mg/kg/injection, schedule: Q01DX005 (ip), vehicle: saline with Tween-80
[8] = dose: 120.0 mg/kg/injection, schedule: Q01DX005 (ip), vehicle: saline with Tween-80
[9] = dose: 240.0 mg/kg/injection, schedule: Q01DX005 (ip), vehicle: saline with Tween-80
[10] = dose: 50.0 mg/kg/injection, schedule: Q01DX005 (ip), vehicle: saline with Tween-80
[11] = dose: 100.0 mg/kg/injection, schedule: Q01DX005 (ip), vehicle: saline with Tween-80
[12] = dose: 200.0 mg/kg/injection, schedule: Q01DX005 (ip), vehicle: saline with Tween-80
[13] = dose: 100.0 mg/kg/injection, schedule: Q04DX003 (ip), vehicle: saline with Tween-80
[14] = dose: 50.0 mg/kg/injection, schedule: Q01DX009 (ip), vehicle: Klucel (hydroxypropylcellulose) (HPC)
[15] = dose: 100.0 mg/kg/injection, schedule: Q01DX009 (ip), vehicle: Klucel (hydroxypropylcellulose) (HPC)
[16] = dose: 200.0 mg/kg/injection, schedule: Q01DX009 (ip), vehicle: Klucel (hydroxypropylcellulose) (HPC)

Measured: T/C

C1C[S][Hg][S]CCO1
inactive: dose: 6.25 mg/kg/injection, schedule: Q01DX009 (ip), vehicle: suspension in saline 105 % of control | dose: 12.5 mg/kg/injection, schedule: Q01DX009 (ip), vehicle: suspension in saline 102 % of control

OC1(c2cccnc2)C=CCC1 (stereo unspecified)
inactive: [1] 100 % of control | [2] 102 % of control | [3] 100 % of control

C[N+](C)([O-])CC1CC=CCC1C[N+](C)(C)[O-] (stereo unspecified)
inactive: dose: 25.0 mg/kg/injection, schedule: Q01DX005 (ip), vehicle: saline 99 % of control | dose: 50.0 mg/kg/injection, schedule: Q01DX005 (ip), vehicle: saline 106 % of control | dose: 100.0 mg/kg/injection, schedule: Q01DX005 (ip), vehicle: saline 91 % of control

CC(C)(C)OC(=O)NC(CSCc1ccccc1)C(=O)ON1C(=O)CCC1=O (stereo unspecified)
inactive: [4] 100 % of control | [5] 98 % of control | [6] 94 % of control

CN1CC(=O)NC2C=CN(Cc3c(Cl)cccc3Cl)C=C2C1=O (stereo unspecified)
inactive: [7] 89 % of control and 90 % of control | [8] 88 % of control | [9] 87 % of control and 90 % of control

COc1ccc(OCC2=NCCc3ccccc32)cc1
inactive: [4] 99 % of control | [5] 107 % of control | [6] 109 % of control

CCN(CC)c1ccc(/C=N\NC(=O)C(=O)N/N=C\c2ccc(N(CC)CC)cc2)cc1
inactive: [10] 87 % of control | [11] 87 % of control | [12] 89 % of control

CC1=C(C#N)C2(N)OC1(C)C1C(=O)C=CC(=O)C12 (stereo unspecified)
inactive: [10] 110 % of control | [11] 107 % of control | [12] 108 % of control

CC(C)c1cc(/C=C2/OC(=O)c3ccccc32)cc(C(C)C)c1O
inactive: dose: 100.0 mg/kg/injection, schedule: Q04DX002 (ip), vehicle: saline 101 % of control | dose: 200.0 mg/kg/injection, schedule: Q04DX002 (ip), vehicle: saline 100 % of control | dose: 400.0 mg/kg/injection, schedule: Q04DX002 (ip), vehicle: saline 106 % of control

CC1CCCCC1NC(=O)NCCOC(=O)OCCNC(=O)NC1CCCCC1C (stereo unspecified)
inactive: [13] 90 % of control | dose: 200.0 mg/kg/injection, schedule: Q04DX003 (ip), vehicle: saline with Tween-80 86 % of control | dose: 400.0 mg/kg/injection, schedule: Q04DX003 (ip), vehicle: saline with Tween-80 86 % of control

COC(=O)c1ccc(O)c(O)c1
inactive: [2] 104 % of control | [3] 100 % of control | dose: 400.0 mg/kg/injection, schedule: Q01DX009 (ip), vehicle: saline with Tween-80 100 % of control

O=c1[nH]n(-c2ccccc2)c2ccccc12
inactive: dose: 12.5 mg/kg/injection, schedule: Q04DX003 (ip), vehicle: saline with Tween-80 94 % of control | dose: 25.0 mg/kg/injection, schedule: Q04DX003 (ip), vehicle: saline with Tween-80 90 % of control | dose: 50.0 mg/kg/injection, schedule: Q04DX003 (ip), vehicle: saline with Tween-80 90 % of control | [13] 95 % of control

S=P(OC1CC2CCC1C2)(c1ccccc1)c1ccccc1 (stereo unspecified)
inactive: [1] 100 % of control | [2] 103 % of control | [3] 106 % of control

Cc1ccc(S(=O)(=O)N2CCCCN(S(=O)(=O)c3ccc(C)cc3)COC2)cc1
inactive: [4] 101 % of control | [5] 101 % of control | [6] 102 % of control

CN(C)CCCNC(=O)NCCCCCCNC(=O)NCCCN(C)C
inactive: [10] 93 % of control | [11] 86 % of control

CN(C)CCOC(=O)C(C)(C)Sc1ccc(Cl)cc1
inactive: [7] 107 % of control | [8] 92 % of control | [9] 98 % of control

NC(=O)N1C(=O)C=CC1=O
inactive: [4] 92 % of control | [5] 104 % of control

CC(=O)Oc1c2ccccc2cc2ccccc12
inactive: [10] 112 % of control | [11] 96 % of control | [12] 89 % of control

O=C(CC1NCCCC1O)Cn1cnc2ccccc2c1=O (stereo unspecified)
inactive: dose: 1.0 mg/kg/injection, schedule: Q01DX009 (ip), vehicle: distilled water + alcohol 116 % of control | dose: 2.0 mg/kg/injection, schedule: Q01DX009 (ip), vehicle: distilled water + alcohol 107 % of control | dose: 4.0 mg/kg/injection, schedule: Q01DX009 (ip), vehicle: distilled water + alcohol 107 % of control

O=S(=O)(CC(O)C(Cl)(Cl)Cl)N(Cc1ccccc1)Cc1ccccc1 (stereo unspecified)
inactive: [14] 103 % of control | [15] 103 % of control | [16] 97 % of control

COc1cc(OC)c(-c2cc(C(=O)O)c3cc4ccccc4cc3n2)c(OC)c1
inactive: [14] 89 % of control | [15] 99 % of control | [16] 97 % of control

C[C@]12CC[C@@H](OC(=O)N(CCCl)N=O)C[C@@H]1CC[C@@H]1[C@@H]2CC[C@]2(C)C(=O)CC[C@@H]12
inactive: dose: 25.0 mg/kg/injection, schedule: Q01DX005 (ip), vehicle: other 105 % of control | dose: 25.0 mg/kg/injection, schedule: Q01DX009 (ip), vehicle: other 121 % of control | dose: 31.2 mg/kg/injection, schedule: Q04DX003 (ip), vehicle: saline 111 % of control | dose: 50.0 mg/kg/injection, schedule: Q01DX005 (ip), vehicle: other 122 % of control | dose: 50.0 mg/kg/injection, schedule: Q01DX009 (ip), vehicle: other 123 % of control | [1] 97 % of control | dose: 62.5 mg/kg/injection, schedule: Q04DX003 (ip), vehicle: saline 109 % of control | dose: 100.0 mg/kg/injection, schedule: Q01DX005 (ip), vehicle: other 114 % of control | [2] 100 % of control | dose: 125.0 mg/kg/injection, schedule: Q04DX003 (ip), vehicle: saline 108 % of control and 112 % of control | [3] 97 % of control | dose: 250.0 mg/kg/injection, schedule: Q04DX003 (ip), vehicle: saline 100 % of control

C[Si](CNCCN)(c1ccccc1)c1ccccc1
inactive: dose: 15.0 mg/kg/injection, schedule: Q01DX005 (ip), vehicle: saline with Tween-80 103 % of control | dose: 30.0 mg/kg/injection, schedule: Q01DX005 (ip), vehicle: saline with Tween-80 102 % of control | [7] 96 % of control and 97 % of control

Nc1nc2c(ncn2[C@@H](CO)OC(CO)CO)c(=O)[nH]1
inactive: [4] 99 % of control | [5] 98 % of control | [6] 98 % of control

O=S1C2CCC(Cl)C1CCC2Cl (stereo unspecified)
inactive: dose: 0.78 mg/kg/injection, schedule: Q01DX009 (ip), vehicle: Klucel (hydroxypropylcellulose) (HPC) 112 % of control | dose: 1.56 mg/kg/injection, schedule: Q01DX009 (ip), vehicle: Klucel (hydroxypropylcellulose) (HPC) 90 % of control

— PubChem BioAssay AID330 (DTP/NCI, 2004)
